Assay results taken from ChEMBL document CHEMBL1150368, “Detection of triplet repeat sequences in the double-stranded DNA using pyrene-functionalized pyrrole-imidazole polyamides with rigid linkers” (Bioorg Med Chem, 2008).

Experiment: Binding affinity to biotinylated hairpin DNA by surface plasmon resonance assay

- Kd: 0.837 µM
Structure (SMILES): CC(=O)Nc1cn(C)c(C(=O)Nc2cc(C(=O)NCCC(=O)Nc3cn(C)c(C(=O)Nc4cc(C(=O)NCCCC(=O)Nc5cn(C)c(C(=O)Nc6cc(C(=O)NCCC(=O)Nc7cn(C)c(C(=O)Nc8cc(C(=O)NCCC(=O)NCCCN(C)C)n(C)c8)n7)n(CC#Cc7ccc8ccc9cccc%10ccc7c8c9%10)c6)n5)n(CC#Cc5ccc6ccc7cccc8ccc5c6c78)c4)n3)n(C)c2)n1
